Data on three compounds can be found in US11148998B2, “Dimethyl-nonatetraenyl-trimethyl-cyclohexyl compounds and uses thereof” (The Regents of the University of Michigan, priority 2017, dated 2021).

Molecules are shown by their SMILES. “Also recorded” adds a separate entry of the source.

The subject of data set [1] is human dermal fibroblasts. Kind of data set: Retinoid-induced fibroblast survival under low-calcium conditions. The format is cell-based. The following applies: KBM 0.1 mM calcium, three days, 0.1 to 5 μg/mL. How it is done:
Human dermal fibroblasts are isolated from skin biopsies as described previously and grown in monolayer culture using DMEM supplemented with 10% fetal bovine serum as culture medium (see, e.g., Varani J, et al., J Clin Invest. 1994; 94; Varani J, et al., J. Invest. Dermatol. 94:717-723, 1990). Growth is at 37° C. in a humidified atmosphere containing 5% CO2 and 95% air. For experimental studies, cells are plated at 5×10^4 cells per well in wells of a 24-well culture dish in the same culture medium. One day later, cells are washed and the DMEM culture medium is replaced with Keratinocyte Basal Medium (KBM).
In this assay, low-passage human dermal fibroblasts are grown for three days in Keratinocyte Basal Medium (KBM) at a calcium concentration (0.1 mM) that is too low to support survival. […] How retinoids act to prevent fibroblast lysis is not fully understood, but part of the mechanism involves modulation of calcium transit across the cell membrane in the presence of the active retinoids (see, e.g., Varani J, et al., Am. J. Path. 136:1275-1281, 1990; Varani K, et al., Am J. Pathol. 147:718-729, 1995; Varani J, et al., Amer. J. Pathol. 148: 1307-1312, 1996).

In data set [2] the test system is serum pro-inflammatory cytokines. The note with it: mouse, in vivo. An excerpt:
Each of the 4 experimental retinoids was made up in DMSO as 0.1% and 0.3% solutions. The material was applied to the treatment area (2 cm^2 area) on a dot marked area on the inter-scapular back) once daily for 7 consecutive days or for 21 consecutive days. The test agent was gently rubbed into the test site after application. As a control, Tretinoin-0.1% was used. […] This is a commonly-prescribed anti-acne medicine. A set amount of the test article, DMSO, DMSO plus test drug, or Tretinoin cream (35 mg) was delivered using a Gilson MICROMAN fully adjustable positive placement pipette.
Serum was obtained from all mice at the end of the study and evaluated for levels of pro-inflammatory cytokines. For this, the same multiplex ELISA used with human samples was employed except that mouse-recognizing antibodies replaced antibodies used to detect the human counterparts.

A further data set has as its system rhino mouse skin. Kind of data set: Rhino mouse topical treatment: skin histology (horn-filled utriculi, epidermal thickness, inflammation). Type of data set: in vivo. The following applies: topical, concentration not given; for inflammatory response / inflammatory cell infiltrate in histological sections (in words): 21 days. An excerpt: FIGS. 12A-C: Efficacy of retinoids at normalizing structure of rhino mouse skin after topical treatment for 21 days.
FIGS. 13A-C: Dose related effect of Example 2 on rhino mouse skin.
The rhinomouse model is an industry-standard pre-clinical model for evaluation of retinoids for anti-acne activity. The mice can be treated topically over a course of days with the desired compound (either formulated or in liquid solvent). During the course of treatment, the animals can be evaluated grossly for skin irritation. At the end of the treatment phase, the animals are euthanized. Skin from treated sites can be evaluated for efficacy—reduction in the number of horn-filled utriculi—and for histological evidence of inflammation.
As a control, Tretinoin-0.1% was used. […] This is a commonly-prescribed anti-acne medicine.
One day after the last treatment, animals were euthanized. The animals were injected with 7 ml 10% buffered formalin after euthanasia. 15 minutes later the treated area on the back of the mouse was removed and cut into 8 pieces. Every other piece was taken, so four pieces of skin were mounted in one cassette and fixed for histology. An extra piece of skin from a non-treated area was also evaluated.
Hematoxylin and eosin stained sections were evaluated microscopically for epidermal thickness with measurements made in the inter-follicular regions at 4 representative sites per tissue strip.
The number of horn-filled utriculi was determined by direct counting in the entire section of skin. Each of the four sections per biopsy was used for determining the number of utriculi. Section lengths were measured as a way to normalize findings. Typically, the section of skin varied from 16-20 mm.
Slides were examined microscopically and inflammation was scored on a 0 to 4+ basis. A score of zero indicated no inflammation while increasing collection of inflammatory cells was identified with increasing score. Slides were also evaluated to determine if inflammation was confined to the dermis or whether there was epidermal inflammation. Dermal inflammation was assessed to determine if inflammatory cells were scattered throughout the dermis or whether small abscesses were also present. Finally, the inflammatory lesions were evaluated to determine whether they consisted of primarily mononuclear cells, granulocytic cells or both. A similar scale has been used previously in the assessment of skin irritation.
At the end of the in-life portion of the study, mice were euthanized by CO2 overdose. Hematoxylin and eosin-stained histological sections from each mouse in the control, ATRA-treated and Compound 2-treated groups were evaluated with regard to the number of horn-filled utriculi, epidermal thickness, and inflammation. Briefly, the epidermis of control mice consisted of a thin epidermis with large numbers of horn-filled utriculi (98+10 per 20 mm of epidermal linear length). […] Both the ATRA-treated mouse (top right panel) the Compound 2 treated skin (bottom panel) show both much thickened […] and disappearance of utriculi. […] There were large numbers of inflammatory cells in the dermis. Microabscesses could be seen in places, and migration of inflammatory cells into the epidermis was also evident. The infiltrate consisted of both mononuclear cells and granulocytes. […] The three other experimental retinoids were also examined along with Compound 2. […] In FIG. 13 it can be seen that during the dosing period 0.1% of Compound 2 led to skin thickening, but incomplete resolution of the utricali, whereas at 0.3% the utricali were more fully resolved.

For data set [3], the system named is human dermal fibroblasts. Kind of data set: Generation of pro-inflammatory cytokines by fibroblasts (multiplex ELISA). The following applies: KBM 1.5 mM calcium, two days, culture fluids. The format is cell-based. How it is done:
Fibroblasts were grown in KBM supplemented with 1.5 mM calcium (i.e., as in the fibroblast cytotoxicity assay) for two days. Culture fluids obtained at the end of the incubation period were assessed for several pro-inflammatory cytokines using a multiplex (ELISA-type) assay. Values shown are means and ranges based on duplicate samples in a single experiment. The experiment was repeated two times with similar results.
It is believed that the pro-inflammatory cytokines are “drivers” of the retinoid-induced skin irritation response. […] In this experiment, fibroblasts were cultured for two days in KBM supplemented with 1.5 mM calcium (i.e., as in the cytotoxicity assay). Culture fluids were collected after two days of incubation and subjected to a multiplex enzyme-linked immunosorbant assay (ELISA) for the following cytokines: TNF-α, IL-1β, IL-6, IL-8, MCP-1 and CXCL-1.

Data set [4] concerns systemic cytokine release. The following applies: intraperitoneal dosing; cited from earlier work.
In the next data set the test system is skin wounds. Kind of data set: Wound healing in rats with steroid-induced atrophic skin. Type of data set: in vivo, rat. An excerpt:
FIGS. 15A-C: Results from a study in rats in which the skin was made atrophic by topical steroid treatment and then wounded. […] In the control animal (15CL), there was incomplete re-epithelialization over the wound and little collagen deposition in the dermis. […] The lack of irritation/inflammation is expected in the control animal but is unusual for a retinoid-treated animal. The data shown here was consistent over n=5 animals per group.
Given the lack of irritation associated with MDI 301, experiments were conducted reasoning that this retinoid might work in the acute wound setting. Essentially, a group of rats were treated with a potent steroid to induce skin atrophy followed by a wounding of the skin. Following this, rats were treated with vehicle alone or with MDI 301. […] It should be noted that in this study ATRA cannot be used, as its irritant properties exacerbate the original injury.

The test system of data set [5] is human skin in organ culture. The note with it: cited from earlier work.

`CC1=C(/C=C/C(C)=C\C=C\C(C)=C\C(=O)N2CCCC(=O)C2)C(C)(C)CCC1` [Example 3, 1-((2E,4E 6Z,8E)-3,7-dimethyl-9-(2,6,6-trimethylcyclohex-1-en-1-yl)nona-2,4,6,8-tetranonyl)piperidin-3-one]: the “protection of fibroblasts from lysis (percentage of initially present cells still viable)” value in the data set with human dermal fibroblasts [1] was “capable of protecting fibroblasts from lysis under low-calcium conditions”. Further, in data set [2], the IL-1β serum level entry was “low” and the TNF-α serum level entry is “low”. Moreover, in the data set with rhino mouse skin, the “inflammatory response / inflammatory cell infiltrate in histological sections (in words)” value was “did not produce an inflammatory response” and the “number of utriculi compared to control (in words)” value is “reduced the number of utriculi as compared to control”. Also, in the data set with human dermal fibroblasts [3], the “induction of pro-inflammatory cytokines (TNF-α, IL-1β, IL-6, IL-8, MCP-1, CXCL-1)” value was “much lower levels of the various cytokines than did ATRA”.

On to `CC1=C(/C=C/C(C)=C\C=C\C(C)=C\C(=O)N(C)CC(=O)C2(C)CC2)C(C)(C)CCC1` [Example 4, (2E,4E,6Z,8E)-N,3,7-trimethyl—N-(2-(1-methylcyclopropyl)-2-oxoethyl)-9-(2,6,6-trimethylcyclohex-1-en-1-yl)nona-2,4,6,8-tetraenamide], for which the “protection of fibroblasts from lysis (percentage of initially present cells still viable)” value with human dermal fibroblasts [1] is on record as “capable of protecting fibroblasts from lysis under low-calcium conditions”. In data set [2], the IL-1β serum level result is recorded as “low” and the TNF-α serum level result was “low”. Also, in the data set with rhino mouse skin, the “inflammatory response / inflammatory cell infiltrate in histological sections (in words)” value is recorded as “did not produce an inflammatory response” and the “number of utriculi compared to control (in words)” value was “reduced the number of utriculi as compared to control”. Also, the “induction of pro-inflammatory cytokines (TNF-α, IL-1β, IL-6, IL-8, MCP-1, CXCL-1)” value in the data set on human dermal fibroblasts [3] is given as “much lower levels of the various cytokines than did ATRA; also recorded: comparable to Compound 1”.

`CC1=C(/C=C/C(C)=C\C=C\C(C)=C\C(=O)OCC(=O)C(C)(C)C)C(C)(C)CCC1` [MDI 301]: the systemic cytokine release entry in data set [4] was “did not elicit systemic cytokine release”. For the same compound, in the data set on skin wounds (1% cream, after 13 days), the “histology of the wound site” value was “confluent layer of epithelial keratinocytes over the wound site and a pronounced zone of fibroblast proliferation with new collagen formation under the epithelial layer”; the “skin irritation and inflammation at the wound site” value is “lack of skin irritation (15BR) and lack of inflammation (15CR)”. The “healing of skin wounds compared to control rats” value in the data set on skin wounds (1.0% cream, ~100 mgs daily to wound periphery, 13 days) is “healed more rapidly”. In addition, in data set [5] (human skin organ culture model), the “effect on collagen-degrading enzyme MMP-1 (collagenase 1)” value is reported as “inhibited the major collagen-degrading enzyme (MMP-1, collagenase 1)” and the “procollagen I production” value is listed as “induced procollagen I production”. Moreover, the “up-regulation of the pro-inflammatory cytokines that underlie retinoid-induced skin irritation” value in data set [5] (past studies) is listed as “did not up-regulate the pro-inflammatory cytokines”.
